# Results published in patent publication US7862751B2, “Formulation of fine particles using liquefield or dense gases” (MAP Pharmaceuticals, Inc., priority 2002, dated 2011).
# How the values were obtained:
# [1] = cited from earlier work
# [2] = Particle size by SEM; assay type: physicochemical; conditions: processed with CO2 at 190 bar, 50° C. and 25° C.
# [3] = coadministration of cyclosporine; J Clin Oncol 2001; cited from earlier work
particle size [2],Compound,solubility in water [1],bioavailability [3]
approximately 5 microns,"Cc1ccc(C)c(OCCCC(C)(C)C(=O)O)c1 [gemfibrozil, 5-(2,5-dimethylphenoxy)-2,2-dimethylpentanoic acid]",very poorly soluble,
,CC(=O)O[C@@]12CO[C@@H]1C[C@H](O)[C@@]1(C)C(=O)[C@H](O)C3=C(C)[C@@H](OC(=O)[C@H](O)[C@@H](NC(=O)OC(C)(C)C)c4ccccc4)C[C@@](O)([C@@H](OC(=O)c4ccccc4)[C@H]21)C3(C)C [docetaxel],,strongly enhanced
